Test results taken from patent US20160002204A1 (Board of Regents, The University of Texas System, priority 2014, published 2016).
pEC50, pIC50: −log10 of the molar value.

Columns and labels:
A549 cells = test: A549 proliferation (viability) assay, Cell Titer Fluor, 72 hours; type: cell-based; details: Homo sapiens
Experimental: A549 cells were routinely maintained in RPMI 1640 media (Gibco catalog number 11875-093) supplemented with 10% dialyzed fetal bovine serum using a humidified incubator (37° C., 5% CO2 and ambient O2). In preparation for the viability assay, cells were inoculated into 384-well black CulturPlates (Perkin Elmer) at a density of 1000 cells/well in a volume of 40 uL. Following a 24-hour incubation at 37° C., 5% CO2 and ambient O2, cells were treated with compound (10 uL) in a final DMSO concentration of 0.5% (v/v). The microplates were then incubated for 72 hours (37° C., 5% CO2 and ambient O2). Cell Titer Fluor (Promega) was subsequently added (10 uL of 6× reagent) and mixed for 15 minutes at room temperature. The plates were then incubated for 30 minutes (37° C., 5% CO2 and ambient O2) and fluorescence was subsequently read on the Perkin Elmer Envision plate reader. EC50 values were calculated using a four-parameter logistic curve fit.

[1] = target: T1, GLS1 (purified recombinant human GAC) (Homo sapiens, UniProt O94925); test: GLS1 enzymatic activity assay (dual-coupled, Amplex UltraRed/resorufin); type: biochemical
T1 sequence (O94925 55-598 isoform O94925-3 limits assumed): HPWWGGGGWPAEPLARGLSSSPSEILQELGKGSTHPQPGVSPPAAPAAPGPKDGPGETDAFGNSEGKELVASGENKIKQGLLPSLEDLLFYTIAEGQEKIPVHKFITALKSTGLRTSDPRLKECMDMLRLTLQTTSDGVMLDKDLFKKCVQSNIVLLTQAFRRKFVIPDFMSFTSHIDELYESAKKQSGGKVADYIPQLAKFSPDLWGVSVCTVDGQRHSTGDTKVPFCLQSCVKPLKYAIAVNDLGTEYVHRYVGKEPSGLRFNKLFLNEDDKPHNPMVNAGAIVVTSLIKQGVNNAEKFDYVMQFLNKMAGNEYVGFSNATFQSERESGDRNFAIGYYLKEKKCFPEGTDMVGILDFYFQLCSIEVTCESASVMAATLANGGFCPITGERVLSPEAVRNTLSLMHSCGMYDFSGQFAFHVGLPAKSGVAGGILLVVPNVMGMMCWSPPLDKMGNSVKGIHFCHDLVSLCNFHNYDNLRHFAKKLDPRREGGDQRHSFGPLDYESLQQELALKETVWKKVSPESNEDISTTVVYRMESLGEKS
Method in brief: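 Recombinant human GAC (2 nM) preincubated with 50 mM potassium phosphate, then inhibitor (10 min each, RT); 1 mM glutamine, pH 7.4 Hepes buffer, 1% DMSO. Glutamate coupled via glutamate oxidase/HRP to resorufin (Ex 530/Em 590), kinetic or 20-min endpoint; IC50 by four-parameter logistic fit.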

SMILES | pEC50 (A549 cells) | pIC50 [1]
O=C(CC1CCCCC1)Nc1ccn(CCCCn2cc(C(=O)NCc3cccc(OC(F)(F)F)c3)nn2)c(=O)c1 [Example 45, 1-{4-[4-(2-cyclohexylacetamido)-2-oxo-1,2-dihydropyridin-1-yl]butyl}-N-{[3-(trifluoromethoxy)phenyl]methyl}-1H-1,2,3-triazole-4-carboxamide] | > 7.00 | > 7.00
Cn1cc(CC(=O)Nc2ccn(CCCCn3cc(C(=O)NCc4cccc(OC(F)(F)F)c4)nn3)c(=O)c2)cn1 [Example 46, 1-(4-{4-[2-(1-methyl-1H-pyrazol-4-yl)acetamido]-2-oxo-1,2-dihydropyridin-1-yl}butyl)-N-{[3-(trifluoromethoxy)phenyl]methyl}-1H-1,2,3-triazole-4-carboxamide] | < 5.30 | 6.30 to 7.00
O=C(CC1CCOC1)Nc1ccn(CCCCn2cc(C(=O)NCc3cccc(OC(F)(F)F)c3)nn2)c(=O)c1 (centres unmarked) [Example 47, 1-(4-{2-oxo-4-[2-(oxolan-3-yl)acetamido]-1,2-dihydropyridin-1-yl}butyl)-N-{[3-(trifluoromethoxy)phenyl]methyl}-1H-1,2,3-triazole-4-carboxamide] | 5.30 to 6.30 | > 7.00
O=C(CC1CCOCC1)Nc1ccn(CCCCn2cc(C(=O)NCc3cccc(OC(F)(F)F)c3)nn2)c(=O)c1 [Example 48, 1-(4-{4-[2-(oxan-4-yl)acetamido]-2-oxo-1,2-dihydropyridin-1-yl}butyl)-N-{[3-(trifluoromethoxy)phenyl]methyl}-1H-1,2,3-triazole-4-carboxamide] | 5.30 to 6.30 | > 7.00
O=C(NCc1ccccn1)c1ccn(CCCCn2cc(C(=O)NCc3cccc(OC(F)(F)F)c3)nn2)c(=O)c1 [Example 49, 2-oxo-N-(pyridin-2-ylmethyl)-1-{4-[4-({[3-(trifluoro-methoxy)phenyl]methyl}carbamoyl)-1H-1,2,3-triazol-1-yl]butyl}-1,2-dihydropyridine-4-carboxamide] | 5.30 to 6.30 | 6.30 to 7.00
CC(=O)Nc1ccn(CCCCn2cc(C(=O)NCc3cccc(OC(F)(F)F)c3)nn2)c(=O)c1 [Example 50, 1-[4-(4-acetamido-2-oxo-1,2-dihydropyridin-1-yl)butyl]-N-{[3-(trifluoromethoxy)phenyl]methyl}-1H-1,2,3-triazole-4-carboxamide] | < 5.30 | 5.30 to 6.30
O=C(Cc1cccc(OC(F)(F)F)c1)Nc1ccn(CCCCn2cc(C(=O)NCc3ccccc3)nn2)c(=O)c1 [Example 51, N-benzyl-1-[4-(2-oxo-4-{2-[3-(trifluoromethoxy)phenyl]acetamido}-1,2-dihydropyridin-1-yl)butyl]-1H-1,2,3-triazole-4-carboxamide] | 5.30 to 6.30 | > 7.00
O=C(Cc1cccc(OC(F)(F)F)c1)Nc1ccn(CCCCn2cc(C(=O)NCc3cccc(OC(F)(F)F)c3)nn2)c(=O)c1 [Example 52, 1-[4-(2-oxo-4-{2-[3-(trifluoromethoxy)phenyl]acetamido}-1,2-dihydropyridin-1-yl)butyl]-N-{[3-(trifluoromethoxy)phenyl]methyl}-1H-1,2,3-triazole-4-carboxamide] | 6.30 to 7.00 | > 7.00
CS(=O)(=O)c1cccc(CNC(=O)c2cn(CCCCn3ccc(NC(=O)Cc4cccc(OC(F)(F)F)c4)cc3=O)nn2)c1 [Example 53, N-[(3-methanesulfonylphenyl)methyl]-1-[4-(2-oxo-4-{2-[3-(trifluoromethoxy)phenyl]acetamido}-1,2-dihydropyridin-1-yl)butyl]-1H-1,2,3-triazole-4-carboxamide] | 5.30 to 6.30 | > 7.00
CC(C)C(=O)Nc1ccn(CCCCn2cc(C(=O)NCc3cccc(OC(F)(F)F)c3)nn2)c(=O)c1 [Example 54, 1-{4-[4-(2-methylpropanamido)-2-oxo-1,2-dihydropyridin-1-yl]butyl}-N-{[3-(trifluoromethoxy)phenyl]methyl}-1H-1,2,3-triazole-4-carboxamide] | 5.30 to 6.30 | 6.30 to 7.00
O=C(Cc1ccccc1F)Nc1ccn(CCCCn2cc(C(=O)NCc3cccc(OC(F)(F)F)c3)nn2)c(=O)c1 [Example 55, 1-(4-{4-[2-(2-fluorophenyl)acetamido]-2-oxo-1,2-dihydropyridin-1-yl}butyl)-N-{[3-(trifluoromethoxy)phenyl]methyl}-1H-1,2,3-triazole-4-carboxamide] | 6.30 to 7.00 | > 7.00
O=C(CC1CCCOC1)Nc1ccn(CCCCn2cc(C(=O)NCc3cccc(OC(F)(F)F)c3)nn2)c(=O)c1 (centres unmarked) [Example 56, 1-(4-{4-[2-(oxan-3-yl)acetamido]-2-oxo-1,2-dihydropyridin-1-yl}butyl)-N-{[3-(trifluoromethoxy)phenyl]methyl}-1H-1,2,3-triazole-4-carboxamide] | 5.30 to 6.30 | > 7.00
O=C(Nc1ccn(CCCCn2cc(C(=O)NCc3ccccn3)nn2)c(=O)c1)OCc1ccccc1 [Example 57, benzyl N-[2-oxo-1-(4-{4-[(pyridin-2-ylmethyl)carbamoyl]-1H-1,2,3-triazol-1-yl}butyl)-1,2-dihydropyridin-4-yl]carbamate] | 5.30 to 6.30 | 6.30 to 7.00
CNC(=O)c1ccn(CCCCn2cc(C(=O)NCc3cccc(OC(F)(F)F)c3)nn2)c(=O)c1 [Example 58, N-methyl-2-oxo-1-{4-[4-({[3-(trifluoromethoxy)phenyl]methyl}carbamoyl)-1H-1,2,3-triazol-1-yl]butyl}-1,2-dihydropyridine-4-carboxamide] | < 5.30 | 5.30 to 6.30
O=C(NCc1cccc(OC(F)(F)F)c1)c1ccn(CCCCn2cc(C(=O)NCc3cccc(OC(F)(F)F)c3)nn2)c(=O)c1 [Example 59, 2-oxo-N-{[3-(trifluoromethoxy)phenyl]methyl}-1-{4-[4-({[3-(trifluoro-methoxy)phenyl]methyl}carbamoyl)-1H-1,2,3-triazol-1-yl]butyl}-1,2-dihydropyridine-4-carboxamide] | 6.30 to 7.00 | > 7.00
O=C(NCc1cccnc1)c1ccn(CCCCn2cc(C(=O)NCc3cccc(OC(F)(F)F)c3)nn2)c(=O)c1 [Example 60, 2-oxo-N-(pyridin-3-ylmethyl)-1-{4-[4-({[3-(trifluoro-methoxy)phenyl]methyl}carbamoyl)-1H-1,2,3-triazol-1-yl]butyl}-1,2-dihydropyridine-4-carboxamide] | < 5.30 | 6.30 to 7.00
COc1ccc(CNC(=O)c2ccn(CCCCn3cc(C(=O)NCc4cccc(OC(F)(F)F)c4)nn3)c(=O)c2)c(OC)c1 [Example 61, N-[(2,4-dimethoxyphenyl)methyl]-2-oxo-1-{4-[4-({[3-(trifluoro-methoxy)phenyl]methyl}carbamoyl)-1H-1,2,3-triazol-1-yl]butyl}-1,2-dihydropyridine-4-carboxamide] | 5.30 to 6.30 | 6.30 to 7.00
CC(C)CNC(=O)c1ccn(CCCCn2cc(C(=O)NCc3cccc(OC(F)(F)F)c3)nn2)c(=O)c1 [Example 62, N-(2-methylpropyl)-2-oxo-1-{4-[4-({[3-(trifluoromethoxy)phenyl]methyl}carbamoyl)-1H-1,2,3-triazol-1-yl]butyl}-1,2-dihydropyridine-4-carboxamide] | 5.30 to 6.30 | 6.30 to 7.00
O=C(NCC1CCCCC1)c1ccn(CCCCn2cc(C(=O)NCc3cccc(OC(F)(F)F)c3)nn2)c(=O)c1 [Example 63, N-(cyclohexylmethyl)-2-oxo-1-{4-[4-({[3-(trifluoro-methoxy)phenyl]methyl}carbamoyl)-1H-1,2,3-triazol-1-yl]butyl}-1,2-dihydropyridine-4-carboxamide] | 6.30 to 7.00 | > 7.00
